This note sets out measurements from ChEMBL document CHEMBL4811312, “SAR towards indoline and 3-azaindoline classes of IDO1 inhibitors” (Bioorg Med Chem Lett, 2021).

In data set [1] the target is T1, Indoleamine 2,3-dioxygenase 1 (Homo sapiens, UniProt P14902). Description: Inhibition of human IDO1 in HEK293 cells at 10 uM relative to control. It is filed as cell-based.
Target sequence in this assay (P14902 whole entry, looked up): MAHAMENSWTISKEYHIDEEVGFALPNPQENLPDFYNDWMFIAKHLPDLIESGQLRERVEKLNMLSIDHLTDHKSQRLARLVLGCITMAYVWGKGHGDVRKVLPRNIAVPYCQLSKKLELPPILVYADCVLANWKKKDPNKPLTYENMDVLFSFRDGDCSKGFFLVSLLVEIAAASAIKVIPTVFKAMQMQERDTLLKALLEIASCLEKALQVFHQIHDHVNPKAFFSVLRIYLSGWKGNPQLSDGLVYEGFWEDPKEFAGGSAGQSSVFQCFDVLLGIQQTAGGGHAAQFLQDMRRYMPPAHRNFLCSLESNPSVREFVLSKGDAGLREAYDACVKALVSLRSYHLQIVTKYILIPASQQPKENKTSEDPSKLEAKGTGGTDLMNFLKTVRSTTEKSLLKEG
Data set [2] can be described thus: Clearance in Wistar Han rats at 0.05 mg/kg, iv. It is filed as ADME, organism-based. To be noted: rat, in vivo.
Data set [3] deals with T1, Indoleamine 2,3-dioxygenase 1. Description: Inhibition of human IDO1 by human whole blood assay. The class given is tissue-based.
Target sequence in this assay (P14902 whole entry): as the sequence (P14902 whole entry, looked up) above
Data set [4] shares this target. In words: Inhibition of human IDO1 in human Hela cells. The class given is cell-based.
Target sequence in this assay (P14902 whole entry): as the sequence (P14902 whole entry, looked up) above
The nature of data set [5]: Unbound clearance in Wistar Han rats at 0.05 mg/kg, iv. The following applies: rat, in vivo. It is filed as ADME, organism-based.
Data set [6] in a line: Mean residence time in Wistar Han rat at 0.5 mg/kg, iv. The class given is ADME, organism-based. To be noted: in vivo.
The target of data set [7] is T1, Indoleamine 2,3-dioxygenase 1. Description: Inhibition of human IDO1 assessed as unbound compound concentration by human whole blood assay. It is filed as tissue-based.
Target sequence in this assay (P14902 whole entry): as the sequence (P14902 whole entry, looked up) above
The target is the same in data set [8]. In words: Inhibition of human IDO1 in human Hela cells at 10 uM relative to control. The class given is cell-based.
Target sequence in this assay (P14902 whole entry, looked up): as above
Data set [9] in a line: Mean residence time in Beagle dog at 0.5 mg/kg, iv. It is filed as ADME, organism-based, Canis lupus familiaris. To be noted: in vivo.
Data set [10] can be described thus: Unbound clearance in Beagle dog at 0.05 mg/kg, iv. It is filed as ADME, organism-based, Canis lupus familiaris. To be noted: in vivo.
Data set [11] can be described thus: Clearance in Beagle dog at 0.05 mg/kg, iv. The class given is ADME, organism-based, Canis lupus familiaris. To be noted: in vivo.

Consider `CC(C)C(=O)N1CCc2cc(CNC(=O)c3ccc(F)cc3)ccc21`, for which the inhibition – broadly, the percentage by which the read-out fell short of the control – in [1] was 88%.
For the compound `COC(=O)N1c2ccc(C3(NC(=O)c4ccc(F)cc4)CC3)cc2[C@H]2CC[C@H]21`, in data set [2], the clearance – broadly, the rate of elimination divided by the concentration – turned out to be 32 mL/min/kg. Also, the IC50 – broadly, the midpoint of a concentration-inhibition curve – amounted to 300 nM in data set [3], 2.8 nM in [4] and 4.1 nM in data set [7]. The compound also registered a CL free in data set [5] of 2318 mL/min/kg. Further, the MRT (as a rule, the average time that molecules of a dose stay in the body) in data set [6] worked out at 1 h.
`O=C(NC1(c2ccc3c(n2)CCN3C(=O)OC2CC2)CCC1)c1ccc(Cl)cc1` displayed a clearance in data set [2] of 20 mL/min/kg. The IC50 in data set [3] was found to be 63 nM; in [4], 4.5 nM; in data set [7], 0.63 nM. For the same compound, in data set [5], the CL free stood at 2049 mL/min/kg. The MRT in [6] was 3.2 h.
For `CC(=O)N1CCc2cc(CNC(=O)c3cccs3)ccc21`, the inhibition in [1] came to 72%.
`Cc1nccc(N2c3ccc(C4(NC(=O)c5ccc(F)cc5)CC4)cc3[C@@H]3CC[C@@H]32)n1`: the IC50 in data set [3] turned out to be 66 nM; in [4], 5 nM.
`COCCOC(=O)N1CCc2nc(C3(NC(=O)c4ccc(Cl)cc4)CCC3)ccc21` showed an IC50 in [4] of 6.9 nM.
As to `O=C(NCc1ccc2c(c1)CCN2C(=O)c1cccc(Cl)c1)c1ccc(Cl)cc1`, in data set [4], the IC50 came out at 90 nM. In data set [8], this compound returned an inhibition of 90%.
As to `Cc1nccc(N2CCc3nc(C4(C(=O)Nc5ccc(F)cc5)CCC4)ccc32)n1`, the IC50 was determined as 430 nM in [3] and 21 nM in data set [4].
`Cc1nccc(N2CC3(CC3)c3nc(C4(NC(=O)c5ccc(F)cc5)CC4)ccc32)n1`: the clearance in data set [2] turned out to be 7.3 mL/min/kg. In data set [4], this compound had an IC50 of 34 nM. The CL free in data set [5] came to 1176 mL/min/kg. In addition, the MRT in [6] is 3.4 h.
In data set [1], `CCC(=O)NCc1ccc2c(c1)CCN2C(=O)c1ccccc1` yielded an inhibition of 41%.
Regarding `CCC(=O)N1CCc2cc(CNC(=O)c3cccc(Cl)c3)ccc21`, the inhibition in [1] was 77%.
On the same count and under the same terms, under `CCC(=O)N1CCc2cc(CNC(=O)c3cccs3)ccc21` stands 89%.
In data set [4], `O=C(Nc1ccc(F)cc1)C1(c2ccc3c(n2)CCN3c2ccnc(C(F)(F)F)n2)CCC1` displayed an IC50 of 127 nM.
`O=C(Nc1ccc(Cl)cc1)C1(c2ccc3c(c2)CCN3c2ccccn2)CCC1`: the values for the IC50 in data set [3] and in data set [4] were 640 nM and 1.6 nM, respectively.
Take `CC(C)C(=O)N1CCc2cc(CNC(=O)c3ccc(Cl)cc3)ccc21`: in [1], the inhibition amounted to 92%.
As to `O=C(OC1CC1)N1CCc2cc(C3(C(=O)Nc4ccc(F)cc4)CCC3)ccc21`, the clearance in data set [2] was determined as 87 mL/min/kg. Further, the IC50 in [4] was determined as 1.4 nM; in data set [7], 0.45 nM. The compound also registered a CL free in data set [5] of 7720 mL/min/kg. In [6], this compound yielded an MRT of 1.8 h.
In [4], `Cc1nccc(N2c3ccc(C4(NC(=O)c5ccc(F)cc5)CC4)cc3[C@@H]3C[C@@H]32)n1` had an IC50 of 8.2 nM.
Regarding `O=C(Nc1ccc(F)cc1)C1(c2ccc3c(c2)CCN3c2ccccn2)CCC1`, the IC50 in data set [4] turned out to be 3.1 nM.
Consider `Cc1nccc(N2CCc3nc(C4(C(=O)Nc5ccc(Cl)cc5)CCC4)ccc32)n1`, for which the IC50 in data set [4] came to 12.5 nM.
Compound `CC(C)CC(=O)N1CCc2cc(CNC(=O)C3CC3)ccc21` registered an inhibition in data set [1] of 35%.
Same read-out and setting: under `CC(C)C(=O)N1CCc2cc(CNC(=O)c3cccs3)ccc21` stands 100%.
Compound `CCC(=O)N1CCc2cc(CNC(=O)c3ccc(F)cc3)ccc21` had an inhibition in data set [1] of 96%.
As to `Cc1nccc(N2c3ccc(C4(NC(=O)c5ccc(F)cc5)CC4)cc3[C@H]3CC[C@H]32)n1`, the IC50 came to 64 nM in data set [3] and 3.8 nM in data set [4].
`Cc1nccc(N2CCc3nc(C4(NC(=O)c5ccc(Cl)cc5)CCC4)ccc32)n1` returned an IC50 in data set [4] of 46 nM.
With `O=C(OC1CC1)N1CCc2nc(C3(C(=O)Nc4ccc(Cl)cc4)CCC3)ccc21`, the IC50 in data set [3] was determined as 90 nM; in data set [4], 2 nM.
In the case of `CC(C)C(=O)N1CCc2cc(CNC(=O)c3ccco3)ccc21`, it took 92 nM to reach half-maximal inhibition in [4] (IC50). The inhibition in data set [8] was found to be 92%.
Turning to `CC(C)NC(=O)NCc1ccc2c(c1)CCN2C(=O)c1ccccc1`, in data set [1], the inhibition came out at 45%.
For `Cc1nccc(N2c3ccc(C4(NC(=O)c5ccc(F)cc5)CC4)cc3[C@H]3C[C@H]32)n1`, the clearance in data set [2] stood at 3.3 mL/min/kg. For the same compound, the IC50 in data set [3] came to 180 nM; in data set [4], 2.9 nM. In [6], this compound came in with an MRT of 3.6 h.
Compound `CC(C)CC(=O)N1CCc2cc(CNC(=O)c3cccnc3)ccc21` yielded an inhibition in [1] of 86%.
In data set [1], `CCC(=O)N1CCc2cc(CNC(=O)c3ccccc3)ccc21` returned an inhibition of 87%.
Regarding `O=C(OC1CC1)N1CCc2nc(C3(C(=O)Nc4ccc(F)cc4)CCC3)ccc21`, the clearance in [2] stood at 61 mL/min/kg. Moreover, in data set [4], the IC50 was 2.7 nM. In data set [5], this compound showed a CL free of 1691 mL/min/kg. In addition, in data set [6], the MRT was 2.7 h.
Regarding `O=C(NC1(c2ccc3c(n2)CCN3C(=O)OC2CC2)CC1)c1ccc(Cl)cc1`, the clearance in data set [2] amounted to 4.8 mL/min/kg; in data set [11], 14 mL/min/kg. Moreover, the IC50 in data set [3] is 390 nM; in [4] it was 4.1 nM; in [7], 11 nM. The MRT in data set [9] came to 4.9 h; in data set [6], 2.9 h. For the same compound, the CL free in data set [5] came out at 174 mL/min/kg; in data set [10] it was 4800 mL/min/kg.
`O=C(NC1(c2ccc3c(n2)C2(CC2)CN3C(=O)OC2CC2)CC1)c1ccc(F)cc1`: in data set [4], the IC50 worked out at 12 nM.
In data set [2], `COC(=O)N1c2ccc(C3(NC(=O)c4ccc(F)cc4)CC3)cc2[C@@H]2CC[C@@H]21` had a clearance of 29 mL/min/kg. In addition, the IC50 in [4] was found to be 5.6 nM. In [5], this compound yielded a CL free of 2899 mL/min/kg. In data set [6], this compound came in with an MRT of 0.8 h.
`CCC(=O)N1CCc2cc(CNC(=O)c3cccc(F)c3)ccc21`: the inhibition in data set [1] turned out to be 82%.
`CCC(=O)N1CCc2cc(CNC(=O)c3ccnn3C)ccc21` gave an inhibition in data set [1] of 14%.
For `CC(C)C(=O)N1CCc2cc(CNC(=O)c3ccccc3)ccc21`, in [1], the inhibition turned out to be 100%.
Turning to `O=C(c1cccc(Cl)c1)N1CCc2nc(C3(C(=O)Nc4ccc(F)cc4)CCC3)ccc21`, in data set [7], the IC50 was determined as 0.84 nM.
Turning to `CC(C)CC(=O)N1CCc2cc(CNC(=O)c3ccco3)ccc21`, the inhibition in [1] was determined as 100%.
`O=C(Nc1ccc(Cl)cc1)C1(c2ccc3c(n2)CCN3c2ccccn2)CCC1` came in with a clearance in data set [2] of 53 mL/min/kg. Moreover, the IC50 in [3] worked out at 340 nM; in data set [4] it was 2.3 nM; in data set [7], 0.34 nM. This compound also showed a CL free in data set [5] of 35929 mL/min/kg. The same compound gave an MRT in [6] of 2.2 h.
The compound `CCCC(=O)NCc1ccc2c(c1)CCN2C(=O)CC(C)C` had an inhibition in data set [1] of 64%.
In turn, `O=C(C1CC1)N1CCc2nc(C3(C(=O)Nc4ccc(F)cc4)CCC3)ccc21` showed a clearance in data set [2] of 60 mL/min/kg. Moreover, the IC50 in [3] is 330 nM; in [4] it was 8 nM; in data set [7] it was 29 nM. This compound also returned a CL free in [5] of 668 mL/min/kg. In data set [6], the MRT came to 1.2 h.
In turn, `COCC(=O)NCc1ccc2c(c1)CCN2C(=O)CC(C)C` returned an inhibition in data set [1] of 20%.
As for `O=C(NC1(c2ccc3c(n2)CCN3c2ccnc(C(F)(F)F)n2)CCC1)c1ccc(Cl)cc1`, the figures for the IC50 in data set [3] and in [4] were 240 nM and 93 nM, respectively.
With `Cc1nccc(N2CCc3cc(C4(C(=O)Nc5ccc(F)cc5)CCC4)ccc32)n1`, the IC50 in data set [3] was determined as 430 nM; in data set [4] it was 5.2 nM.
For `CC(C)CC(=O)N1CCc2cc(CNC(=O)c3cccs3)ccc21`, in data set [1], the inhibition turned out to be 100%.
